According to PubChem BioAssay (NCI):
Where “and” joins values, the source holds several entries; their conditions need not be identical. Identical values can stand only once.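 Dose response: 5 concentrations. Exposure: 48 h. Format: 96-well plates. Endpoint: linear interpolation; highest concentration if not reached. At the GI50, growth is halved. The concentration for full growth arrest is given as TGI.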

Tests used:
Assay in all cases: NCI tumour cell line growth inhibition, 48 h
A498 renal = system: A498 renal
HOP-62 NSCLC = system: HOP-62 NSCLC
HS 578T breast = system: HS 578T breast
KM12 colon = system: KM12 colon
MCF7 breast = system: MCF7 breast
NCI/ADR-RES ovarian = system: NCI/ADR-RES ovarian
OVCAR-3 ovarian = system: OVCAR-3 ovarian
OVCAR-5 ovarian = system: OVCAR-5 ovarian
SF-295 CNS = system: SF-295 CNS
T-47D breast = system: T-47D breast

SMILES	GI50 (A498 renal) [µM]	TGI (A498 renal) [µM]	GI50 (HOP-62 NSCLC) [µM]	TGI (HOP-62 NSCLC) [µM]	GI50 (HS 578T breast) [µM]	TGI (HS 578T breast) [µM]	GI50 (KM12 colon)	TGI (KM12 colon)	GI50 (MCF7 breast)	TGI (MCF7 breast)	GI50 (NCI/ADR-RES ovarian) [µM]	TGI (NCI/ADR-RES ovarian) [µM]	GI50 (OVCAR-3 ovarian) [µM]	TGI (OVCAR-3 ovarian)	GI50 (OVCAR-5 ovarian) [µM]	TGI (OVCAR-5 ovarian)	GI50 (SF-295 CNS)	TGI (SF-295 CNS)	GI50 (T-47D breast)	TGI (T-47D breast) [µM]
CN(C)CCCC(=O)Nc1ccc(Cn2nnc3c2C(=O)c2nnn(Cc4ccc(NC(=O)CCCN(C)C)cc4)c2C3=O)cc1	16	45.3	17.2	32.8	2.93	7.68	7.54 µM	22.7 µM	1.45 µM	3.52 µM	> 100	> 100	2.38	6.02 µM	19	51.4 µM	14.4 µM	31.5 µM		
CC(C)c1ccc(O)c(=O)cc1		> 100	3.75	> 100			5.28 µM	> 100 µM	5.08 µM		3.64	59.3	2.03	> 100 µM and 18.3 µM	6.84	64.8 µM and > 100 µM	7.57 µM	> 100 µM	21 µM	
COC1(OC)c2ccccc2C2(O)c3ccccc3C(=O)C12 (stereo not given)								> 100 µM						> 100 µM		> 100 µM		> 100 µM		
O=C(Nc1ccccc1F)c1ccc(NC2=C(Cl)C(=O)N(Cc3ccccc3)C2=O)cc1	16.6	30.2			2.95	9.4	14.8 µM	34.3 µM	2.02 µM	5.06 µM	11.5	23.6	1.68	3.05 µM	16.6	30.2 µM	10.7 µM	22.6 µM	3.06 µM	8.01
CN(Cc1ccccc1)C1(N(C)Cc2ccccc2)CC1		> 100		> 100				> 100 µM						> 100 µM		> 100 µM		> 100 µM		
COc1cc(/C=C/C(=O)c2cc(OC)c(OC)c(OC)c2)cc(OC)c1OC	2.47	9.47	4.07	18.2	2.76	59.1	1.98 µM	4.84 µM	3.05 µM	15.3 µM			1.91	4.21 µM	5.68	20.1 µM	2.18 µM	7.85 µM	3.5 µM	31.5
COc1ccc2sc3c(NCCCNCCO)nc4ccccc4c3c(=O)c2c1	1.49	2.97	1.59	3.26	1.42	3.48	1.62 µM	3.12 µM	1.54 µM	3.1 µM	1.76	3.53	1.74	3.21 µM	1.6	3.05 µM	1.73 µM	3.15 µM		
O=[N+]([O-])c1ccc(O)c2ncccc12						> 100	3.92 µM and 4.31 µM	> 100 µM and 16.5 µM	23.1 µM and 3.39 µM	> 100 µM and 11.5 µM						> 100 µM and 40.5 µM	22 µM and 2.28 µM	82.4 µM and 13.1 µM	23 µM and 2.38 µM	
Cc1nn(C)c(=O)c2nn(-c3ccccc3)c(C)c12		> 100		> 100				> 100 µM						> 100 µM		> 100 µM		> 100 µM		
COc1ccc(Nc2c[nH]c(=O)[nH]c2=O)cc1		> 100		> 100				> 100 µM		> 100 µM		> 100		> 100 µM				> 100 µM		> 100
O=C1CC(c2c[nH]c3ccccc23)C(=O)N1c1ccccc1 (stereo not given)		> 100		> 100				> 100 µM						> 100 µM		> 100 µM		> 100 µM		
CC(C)(C)C(=O)OCC(COC(=O)C(C)(C)C)[N+](=O)[O-]								> 100 µM						> 100 µM		> 100 µM		> 100 µM		
CC(C)(C)c1nnc2n(c1=O)N=CC(c1ccc(Br)cc1)S2 (stereo not given)			37.5	> 100	35.2	91.1	26.1 µM	> 100 µM	42 µM	> 100 µM	26.4	61.6	21.8	70.8 µM	42.2	> 100 µM	12.1 µM	58.9 µM	23.8 µM	> 100
c1ccc2c(c1)ccc1c3ccccc3ccc21	> 50	> 50	> 50	> 50	> 50	> 50	> 50 µM	> 50 µM	> 50 µM	> 50 µM	> 50	> 50	> 50	> 50 µM	> 50	> 50 µM			> 50 µM	> 50
C1C[OH+]CC[OH+]CC[OH+]CC[OH+]CC[OH+]CC[OH+]1.[Cl-].[Ta+5]	> 100	> 100	> 100	> 100			> 100 µM	> 100 µM					> 100	> 100 µM			> 100 µM	> 100 µM		
COc1cc(/C=C2\CCc3ccccc3C2=O)cc(OC)c1OC				47.8				26.5 µM						30.1 µM		27.9 µM		28.6 µM		
CS(=O)(=O)CS(=O)CS(=O)CS(=O)CC(NC(=O)CCC(N)C(=O)O)C(=O)O (stereo not given)				> 100		> 100		> 100 µM		> 100 µM		> 100		> 100 µM		> 100 µM		> 100 µM		> 100
COc1ccc(-c2nn(-c3cccc(NC(=O)Nc4cccc(C(F)(F)F)c4)c3)cc2-c2ccncc2)cc1Cl	1.61	5.81	2.81	10.9	1.65	7.84	1.47 µM	5.23 µM	1.91 µM	> 100 µM	2.29	> 100			3.73	> 100 µM	1.69 µM	7.32 µM	1.17 µM	7.69
CC1=N/C(=C\c2cccc3ccccc23)C(=O)O1		> 100		> 100				> 100 µM								> 100 µM		> 100 µM		
N#Cc1ccc2oc3ccc(C#N)cc3c(=O)c2c1		28.9						> 100 µM		94.8 µM		> 100				34.5 µM		47.1 µM		> 100
COc1cccc2c(Nc3ccc(C(=O)NCCN(C)C)cc3)cc(-c3ccccc3)nc12	17.2	32	13.8	29.3	21.4	53.6	19.7 µM	43.2 µM			18.3	42.9	25.6	54.1 µM	23.7	50.6 µM	22.9 µM	41.4 µM	19.7 µM	50.2
CC(C)(C)n1cc(-c2ccnc(NCCNS(=O)(=O)c3cccc4ccccc34)c2)c(-c2cccc(F)c2)n1			17.2	46.3	16.7	46	17.9 µM	55.8 µM	16.3 µM	59.6 µM	21.4	> 100	15.4	30.4 µM	23.7	69.9 µM	22.3 µM	57.3 µM	4.22 µM	47.8
C=CCNc1cccc2c1C(=O)c1ccccc1C2(O)CC=C (stereo not given)	21.8	47.8	24.2	61.2	18.8	43.5	23.6 µM	56.9 µM	66.7 µM	> 100 µM	22.4	58.4			31.5	67.9 µM	25.7 µM	55 µM	32.2 µM	> 100

SMILES	GI50 (A498 renal) [µM]	TGI (A498 renal) [µM]	GI50 (HOP-62 NSCLC) [µM]	TGI (HOP-62 NSCLC) [µM]	GI50 (HS 578T breast) [µM]	TGI (HS 578T breast) [µM]	GI50 (KM12 colon)	TGI (KM12 colon)	GI50 (MCF7 breast)	TGI (MCF7 breast)	GI50 (NCI/ADR-RES ovarian) [µM]	TGI (NCI/ADR-RES ovarian) [µM]	GI50 (OVCAR-3 ovarian) [µM]	TGI (OVCAR-3 ovarian)	GI50 (OVCAR-5 ovarian) [µM]	TGI (OVCAR-5 ovarian)	GI50 (SF-295 CNS)	TGI (SF-295 CNS)	GI50 (T-47D breast)	TGI (T-47D breast) [µM]
COC(=O)C(=O)C(C#N)c1ccc(Cl)c(Cl)c1 (stereo not given)								> 100 µM						> 100 µM				> 100 µM		
O=c1c2cccnc2ncn1CCCN1CCOCC1				> 100				> 100 µM						> 100 µM		> 100 µM		> 100 µM		
Cc1cccc(N2C(=O)C(=O)C(c3nc4ccccc4s3)C(=O)C2=O)c1C		> 100		> 100										> 100 µM		> 100 µM		> 100 µM		
O=C1CCC(=O)C12CCc1cccc(O)c12				> 100										> 100 µM				> 100 µM		
COc1ccc(S(=O)(=O)N/N=C(\C)CN2C(=O)c3ccccc3C2=O)cc1		> 100		> 100				> 100 µM						> 100 µM		> 100 µM		> 100 µM		
Cn1cnc([N+](=O)[O-])c1Sc1nnc(C(F)(F)F)n1C		> 100		> 100				> 100 µM						55.6 µM		> 100 µM		> 100 µM		
Cc1ccc([Se][Se]c2ccc(C)cc2)cc1		> 100		> 100				> 100 µM						> 100 µM				61.6 µM		
Clc1ccc(Nc2nc3ccccc3c3occc23)cc1			9.19	17.3	6.95	16.3	6.46 µM	13.8 µM	10.9 µM	> 50 µM	8.7	15.6	5.92	12.1 µM	9.4	18.4 µM	6.86 µM	13.3 µM	1.52 µM	11.3
O=C1CCC2CCOc3ccc(O)c1c32 (stereo not given)		> 100		> 100				> 100 µM						> 100 µM		> 100 µM		> 100 µM		
COc1cccc2c1C(=O)c1c(O)c3c(c(O)c1C2=O)C[C@@](O)(/C(C)=N\O)C[C@@H]3OC1CC(N)C(O)C(C)O1 (stereo not given in full)		3.31		6.46		6.58		15.8 µM		9.97 µM				8.58 µM		12.2 µM		7.84 µM		11
O=C(/C=C/c1ccc(Cl)cc1)c1ccncc1		88.7		> 100				86.6 µM						> 100 µM		> 100 µM		> 100 µM		
O=C(O/N=C1/CCCC/C1=C\c1ccccc1)c1ccc(Cl)cc1				> 100				> 100 µM						> 100 µM		> 100 µM		> 100 µM		
CC1=N/C(=C\c2ccc([N+](=O)[O-])cc2)C(=O)O1		> 100		> 100				> 100 µM						> 100 µM		> 100 µM		> 100 µM		
CCOC(=O)C1(C(=O)OCC)CC=C(C)CC12C(=O)Nc1ccccc12 (stereo not given)		> 100		> 100				> 100 µM						> 100 µM		> 100 µM		> 100 µM		
CC1=C(c2cc(C(=O)Nc3cccc(C(F)(F)F)c3)nc(NC#N)n2)Sc2ccccc2N1		> 100		> 100				> 100 µM						> 100 µM		> 100 µM		> 100 µM		
CN(C)CCNC(=O)c1cccc2c1nc(-c1ccccn1)c1ccccc12		27.2		36.2				> 100 µM						38.6 µM		38.1 µM		41.1 µM		
O=C1c2ccccc2C2(O)Oc3cccc(O)c3C12O (stereo not given)		> 100		> 100				> 100 µM						> 100 µM		> 100 µM		> 100 µM		
C=CCNC(=S)OCCCCCCCCCC		33.3		36.3				26.6 µM								21.8 µM		34.5 µM		
COc1ccc(-c2[nH]ncc2-c2cc(OC)c(OC)c(OC)c2)cc1	< 0.01	< 0.0127	< 0.01	> 100	< 0.01	7.24	< 0.01 µM	13.1 µM	< 0.01 µM	22.5 µM	< 0.01	1.93	< 0.01		< 0.018	> 47.7 µM	< 0.01 µM	< 0.01 µM		
Cc1nn(C)c(=S)n(C)c1=O		37.7		11.4										> 100 µM		53.8 µM		> 100 µM		
COP1(=S)OCC2CCC[C@@H]2O1 (stereo not given in full)		> 100						> 100 µM				> 100		> 100 µM		> 100 µM		> 100 µM		> 100
CCCCCCCCCC(=O)N[C@H]1CCc2cc(OC)c(OC)c(OC)c2-c2ccc(SC)c(=O)cc21		0.0596						0.0436 µM						0.0477 µM and 0.03 µM		> 100 µM				
N#Cc1nc(Nc2ccc([N+](=O)[O-])cc2)sc1N		> 100		75.8				> 100 µM						> 69.4 µM		> 100 µM		> 100 µM		
